In patent US20230089582A1, “1,2,4-TRIAZINE-3,5-DIONE COMPOUND, PREPARATION METHOD THEREFOR, AND APPLICATION THEREOF” (KPC PHARMACEUTICALS, INC, priority 2019, published 2023):

Assays:
in vitro = conditions: microsomes, pH 7.4
Description: The stop solution was an acetonitrile solution containing tolbutamide and propranolol (both internal standards).
Phosphate buffer was 100 mM K3PO4 (pH=7.4) buffer containing 3.3 mM MgCl2.
The liver microsome incubation system was in 100 mM phosphate buffer containing 0.2 mg/mL liver microsomal protein and 1 μM test substance/positive control.
80 μL of the mixture was transferred from the incubation system to 400 μL of stop solution to precipitate proteins, and 20 μL of NADPH regeneration system was added after vortexing as a 0 min sample point.
130 μL of NADPH regeneration system was added to the remaining 520 μL of protein drug mixture and mixed well to start incubation. The final incubation system was 650 μL, containing 0.2 mg/mL liver microsomal protein, 1 μM test substance/positive control, 1.3 mM NADP, 3.3 mM G-6-P and 0.6 U/mL G-6-PDH.

THRα = THRα (Homo sapiens, UniProt P10827); assay: THRα binding assay (TR-FRET co-activating peptide recruitment); type: biochemical; conditions: THRα instead of THRβ, agonistic effect
Sequence of THRα (P10827 163-410 isoform P10827-2 limits assumed, other chains not shown): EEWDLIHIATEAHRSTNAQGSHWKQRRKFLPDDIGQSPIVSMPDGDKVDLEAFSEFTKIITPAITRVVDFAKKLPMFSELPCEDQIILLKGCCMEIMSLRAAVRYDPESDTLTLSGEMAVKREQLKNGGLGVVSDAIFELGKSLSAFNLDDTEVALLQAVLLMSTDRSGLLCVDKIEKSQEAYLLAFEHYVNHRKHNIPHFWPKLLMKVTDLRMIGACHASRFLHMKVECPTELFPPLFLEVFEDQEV
Sequence of THRα (P19793 whole entry partner, other chains not shown, the tested form may be a part): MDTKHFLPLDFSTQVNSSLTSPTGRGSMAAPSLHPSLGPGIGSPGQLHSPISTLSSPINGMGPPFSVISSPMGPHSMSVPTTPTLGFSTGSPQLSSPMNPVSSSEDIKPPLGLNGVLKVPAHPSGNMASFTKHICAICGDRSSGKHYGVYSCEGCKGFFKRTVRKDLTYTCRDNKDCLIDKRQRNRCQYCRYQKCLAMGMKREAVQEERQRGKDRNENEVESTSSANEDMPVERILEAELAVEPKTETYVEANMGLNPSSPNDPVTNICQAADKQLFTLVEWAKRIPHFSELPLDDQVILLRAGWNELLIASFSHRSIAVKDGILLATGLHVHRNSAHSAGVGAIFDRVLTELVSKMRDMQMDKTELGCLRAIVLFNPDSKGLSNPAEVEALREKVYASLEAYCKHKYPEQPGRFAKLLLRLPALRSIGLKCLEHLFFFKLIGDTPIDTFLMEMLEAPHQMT

THRβ = biological target: T1, THRβ (Homo sapiens, UniProt P10828); assay: THRβ binding assay (TR-FRET co-activating peptide recruitment); type: biochemical; conditions: THRβ-LBD/RXRα, SRC2-2 co-activating peptide recruitment, agonistic effect
T1 construct: RXRα and GST-tagged THRβ-LBD
T1 sequence (P10828 217-461 limits assumed, other chains not shown): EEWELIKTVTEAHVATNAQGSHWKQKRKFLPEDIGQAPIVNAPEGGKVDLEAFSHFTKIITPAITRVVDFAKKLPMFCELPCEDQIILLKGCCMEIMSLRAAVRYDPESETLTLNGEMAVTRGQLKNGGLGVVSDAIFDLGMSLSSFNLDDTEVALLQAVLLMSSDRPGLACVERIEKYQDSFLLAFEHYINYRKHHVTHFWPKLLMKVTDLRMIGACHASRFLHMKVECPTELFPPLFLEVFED
T1 sequence (P19793 whole entry partner, other chains not shown, the tested form may be a part): as the sequence (P19793 whole entry partner, other chains not shown, the tested form may be a part) above
Description: Experimental method: In vitro analysis of the agonistic effect of the compounds on THRβ was performed using a time-resolved fluorescence resonance energy transfer co-activating peptide recruitment assay. The assay used Eu-anti-GST antibody, biotin-SRC2-2 co-activating peptide, streptavidin-d2, RXRα and GST-tagged THRβ-LBD. The Eu-anti-GST antibody indirectly labeled THRβ-LBD by binding to GST tag. Streptavidin-d2 indirectly labeled the SRC2-2 co-activating peptide by binding to biotin tag. In the presence of RXRα, THRβ-LBD can form a heterodimer THRβ-LBD/RXRα with it. The agonist bound to THRβ-LBD/RXRα and caused a conformational change of THRβ-LBD, thereby increasing the recruitment capacity of the heterodimer to the SRC2-2 co-activating peptide. Furthermore, the resulting decreased distance between the d2-labeled SRC2-2 co-activating peptide and the Eu-anti-GST antibody increased the […] signal. The agonistic ability of a compound can be assessed based on the effect of different concentrations of the compound on THRβ activity.
The detailed procedure is as follows.
a. 100× reference compound or compound was prepared with DMSO and diluted in 1:3.
e. The plates were centrifuged at 1000 rpm for 1 min and incubated for 4 h at room temperature shielded from light.

Q: For CC(C)c1cc(Oc2c(Cl)cc(-n3nc(C#N)c(=O)[nH]c3=O)cc2Cl)n[nH]c1=O [Control compound 2, MGL-3196, reference compound], which half-life at 1 μM (in vitro; dog) is on record?
A: Its half-life at 1 μM is 2 h.

Q: What about the microsomal CLint at 1 μM (in vitro; dog) of the same compound?
A: Its microsomal CLint at 1 μM is 28.9 µL/min/mg.

Q: And the half-life at 1 μM (in vitro; human)?
A: The half-life at 1 μM was 5.18 h.

Q: And the microsomal CLint at 1 μM (in vitro; human)?
A: The microsomal CLint at 1 μM was 11.2 µL/min/mg.

Q: And the half-life at 1 μM (in vitro; monkey)?
A: The half-life at 1 μM was 4.96 h.

Q: And the microsomal CLint at 1 μM (in vitro; monkey)?
A: The microsomal CLint at 1 μM was 11.6 µL/min/mg.

Q: What about the half-life at 1 μM (in vitro; rat) of the same compound?
A: Its half-life at 1 μM is 12.8 h.

Q: What about the microsomal CLint at 1 μM (in vitro; rat) of the same compound?
A: Its microsomal CLint at 1 μM is 4.5 µL/min/mg.

Q: With CC(C)c1cc(Oc2c(Cl)cc(-n3nc(CF)c(=O)[nH]c3=O)cc2Cl)n[nH]c1=O [Example 2] as the compound, how does the EC50 (THRα) read?
A: Its EC50 is 190 nM.

Q: What about the Emax (THRα) of the same compound?
A: The Emax was 107%.

Q: And the half-life at 1 μM (in vitro; dog)?
A: The half-life at 1 μM was 4.4 h.

Q: And the microsomal CLint at 1 μM (in vitro; dog)?
A: Its microsomal CLint at 1 μM is 13.1 µL/min/mg.

Q: And the half-life at 1 μM (in vitro; human)?
A: Its half-life at 1 μM is 17.1 h.

Q: And the microsomal CLint at 1 μM (in vitro; human)?
A: Its microsomal CLint at 1 μM is 3.4 µL/min/mg.

Q: And the half-life at 1 μM (in vitro; monkey)?
A: Its half-life at 1 μM is 8.92 h.

Q: What about the microsomal CLint at 1 μM (in vitro; monkey) of the same compound?
A: Its microsomal CLint at 1 μM is 6.5 µL/min/mg.

Q: And the half-life at 1 μM (in vitro; mouse)?
A: Its half-life at 1 μM is 3.12 h.

Q: And the microsomal CLint at 1 μM (in vitro; mouse)?
A: The microsomal CLint at 1 μM was 18.5 µL/min/mg.

Q: What about the half-life at 1 μM (in vitro; rat) of the same compound?
A: The half-life at 1 μM was 12.3 h.

Q: What about the microsomal CLint at 1 μM (in vitro; rat) of the same compound?
A: The microsomal CLint at 1 μM was 4.7 µL/min/mg.

Q: What about the EC50 (THRβ) of the same compound?
A: The EC50 was 5 nM.

Q: What about the Emax (THRβ) of the same compound?
A: Its Emax is 92.8%.

Q: With O=c1[nH]nc(Oc2c(Cl)cc(-n3nc(CF)c(=O)[nH]c3=O)cc2Cl)cc1C1CCCCC1 [Example 9, 2-(3,5-dichloro-4-((5-cyclohexyl-6-oxo-1,6-dihydropyridazin-3-yl)oxy)phenyl)-6-(fluoromethyl)-1,2,4-triazine-3,5(2H,4H)-dione] as the compound, how does the EC50 (THRα) read?
A: Its EC50 is 4260 nM.

Q: And the Emax (THRα)?
A: The Emax was 123%.

Q: And the EC50 (THRβ)?
A: Its EC50 is 101 nM.

Q: And the Emax (THRβ)?
A: The Emax was 108%.

Q: Which results are given for O=c1[nH]nc(Oc2c(Cl)cc(-n3nc(CF)c(=O)[nH]c3=O)cc2Cl)cc1C1CCCC1 [Example 10, 2-(3,5-dichloro-4-((5-cyclopentyl-6-oxo-1,6-dihydropyridazin-3-yl)oxy)phenyl)-6-(fluoromethyl)-1,2,4-triazine-3,5(2H,4H)-dione]?
A: EC50 (THRα): 1410 nM; Emax (THRα): 112%; EC50 (THRβ): 94 nM; Emax (THRβ): 110%

Q: Which EC50 (THRα) does the source give for O=c1[nH]nc(Oc2c(Cl)cc(-n3nc(CF)c(=O)[nH]c3=O)cc2Cl)cc1C1CC1 [Example 12, 2-(3,5-dichloro-4-((5-cyclopropyl-6-oxo-1,6-dihydropyridazin-3-yl)oxy)phenyl)-6-(fluoromethyl)-1,2,4-triazine-3,5(2H,4H)-dione] here?
A: The EC50 was 210 nM.

Q: What about the Emax (THRα) of the same compound?
A: The Emax was 127%.

Q: What about the EC50 (THRβ) of the same compound?
A: The EC50 was 71 nM.

Q: And the Emax (THRβ)?
A: The Emax was 105%.

Q: With O=c1[nH]nc(Oc2c(Cl)cc(-n3nc(CF)c(=O)[nH]c3=O)cc2Cl)cc1C1CCC1 [Example 14, 2-(3,5-dichloro-4-((5-cyclobutyl-6-oxo-1,6-dihydropyridazin-3-yl)oxy)phenyl)-6-(fluoromethyl)-1,2,4-triazine-3,5(2H,4H)-dione] as the compound, how does the EC50 (THRα) read?
A: Its EC50 is 230 nM.

Q: And the Emax (THRα)?
A: The Emax was 124%.

Q: And the EC50 (THRβ)?
A: Its EC50 is 42 nM.

Q: And the Emax (THRβ)?
A: Its Emax is 117%.

Q: With CC(C)(F)c1cc(Oc2c(Cl)cc(-n3nc(CF)c(=O)[nH]c3=O)cc2Cl)n[nH]c1=O [Example 16, 3-(3,5-dichloro-4-((5-(2-fluoropropan-2-yl)-6-oxo-1,6-dihydropyridazin-3-yl)oxy)phenyl)-6-(fluoromethyl)-1,2,4-triazine-3,5(2H,4H)-dione] as the compound, how does the EC50 (THRβ) read?
A: The EC50 was 164 nM.

Q: What about the Emax (THRβ) of the same compound?
A: The Emax was 111%.

Q: With C=C(C)c1cc(Oc2c(Cl)cc(-n3nc(CF)c(=O)[nH]c3=O)cc2Cl)n[nH]c1=O [Example 18, 2-(3,5-dichloro-4-((6-oxo-5-(prop-1-en-2-yl)-1,6-dihydropyridazin-3-yl)oxy)phenyl)-6-(fluoromethyl)-1,2,4-triazine-3,5(2H,4H)-dione] as the compound, how does the EC50 (THRβ) read?
A: The EC50 was 23.6 nM.

Q: What about the Emax (THRβ) of the same compound?
A: The Emax was 124%.

Q: Which EC50 (THRβ) does the source give for CC(C)c1cc(Oc2c(Cl)cc(-n3nc(C4CC4)c(=O)[nH]c3=O)cc2Cl)n[nH]c1=O [Example 19, 6-cyclopropyl-2-(3,5-dichloro-4-((5-isopropyl-6-oxo-1,6-dihydropyridazin-3-yl)oxy)phenyl)-1,2,4-triazine-3,5(2H,4H)-dione] here?
A: Its EC50 is 7250 nM.

Q: And the Emax (THRβ)?
A: Its Emax is 77.7%.

Q: With CC(C)c1cc(Oc2c(Cl)cc(-n3nc(O)c(=O)[nH]c3=O)cc2Cl)n[nH]c1=O [Example 20, 2-(3,5-dichloro-4-((5-isopropyl-6-oxo-1,6-dihydropyridazin-3-yl)oxy)phenyl)-6-hydroxy-1,2,4-triazine-3,5(2H,4H)-dione] as the compound, how does the EC50 (THRβ) read?
A: The EC50 was over 10000 nM.
